{"source": "ChEMBL document CHEMBL4804283", "about": "“Stk19 inhibitors for treatment of cancer” (2020)", "key": {"[1]": {"test": "Toxicity in C57BL/6J mouse assessed as effect on total bilirubin level at 25 mg/kg, administered twice daily for 20 days", "assay_type": "organism-based", "settings": "in vivo, 480 h"}, "[2]": {"system": "UACC-62", "test": "Growth inhibition of human UACC62 cells expressing wild-type NRAS and BRAF V600E mutant at 1-3 uM relative to control", "assay_type": "functional, cell-based"}, "[3]": {"system": "SK-MEL-2", "test": "Induction of apoptosis in human SK-MEL-2 cells expressing NRAS Q61R and wild-type BRAF at 1-3 uM relative to control", "assay_type": "functional, cell-based"}, "[4]": {"target": "T1, Inactive serine/threonine-protein kinase 19 (Homo sapiens) (UniProt P49842)", "T1 sequence (whole entry)": "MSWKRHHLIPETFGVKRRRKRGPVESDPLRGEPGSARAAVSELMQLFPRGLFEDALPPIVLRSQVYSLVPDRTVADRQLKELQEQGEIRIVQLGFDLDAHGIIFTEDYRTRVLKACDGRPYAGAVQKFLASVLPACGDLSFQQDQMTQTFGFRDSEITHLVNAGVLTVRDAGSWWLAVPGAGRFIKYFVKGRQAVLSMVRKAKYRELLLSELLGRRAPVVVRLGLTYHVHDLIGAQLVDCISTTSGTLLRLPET", "test": "Inhibition of recombinant human STK19 assessed as NRAS phosphorylation at 1-3 uM relative to control"}, "[5]": {"test": "Toxicity in C57BL/6J mouse assessed as heart histology at 25 mg/kg, administered twice daily for 20 days by H and E staining method", "assay_type": "organism-based", "settings": "in vivo, 480 h"}, "[6]": {"target": "T1, Inactive serine/threonine-protein kinase 19 (Homo sapiens)", "test": "Inhibition of STK19 in human SK-MEL-2 cells expressing NRAS Q61R and wild-type BRAF at 300 nM assessed as H3K9 methylation relative to control", "assay_type": "cell-based"}, "[7]": {"system": "hTERT", "test": "Antiproliferative activity against hTERT/p53DD/CDK4 (R24C) immortal melanocytes expressing wild-type STK19 at 3 uM relative to control", "assay_type": "functional, tissue-based", "settings": "Homo sapiens"}, "[8]": {"target": "T1, Inactive serine/threonine-protein kinase 19 (Homo sapiens)", "test": "Inhibition of STK19 in human A375 cells expressing wild-type NRAS and BRAF V600E mutant at 1-3 uM assessed as MEK-ERK signaling relative to control", "assay_type": "cell-based", "settings": "A-375"}, "[9]": {"system": "SK-MEL-2", "test": "Antitumor activity against human SK-MEL-2 cells xenografted in nude mouse assessed as induction of apoptosis at 50 mg/kg, administered for 21 days", "assay_type": "functional, organism-based"}, "[10]": {"target": "T1, Inactive serine/threonine-protein kinase 19 (Homo sapiens)", "test": "Inhibition of STK19 in human WM2032 cells expressing NRAS Q61R and wild-type BRAF at 300 nM assessed as NRAS phosphorylation relative to control", "assay_type": "cell-based"}, "[11]": {"system": "SK-MEL-2", "test": "Inhibition of G9a in nude mouse xenografted with human SK-MEL-2 cells assessed as decrease in H3K9 methylation at 50 mg/kg", "assay_type": "functional, organism-based"}, "[12]": {"target": "T1, Inactive serine/threonine-protein kinase 19 (Homo sapiens)", "test": "Inhibition of STK19 in STK19-depleted human primary melanocytes expressing wild-type STK19 at 1-3 uM assessed as NRAS phosphorylation relative to control", "assay_type": "tissue-based", "settings": "Melanocyte"}, "[13]": {"system": "hTERT", "test": "Antiproliferative activity against hTERT/p53DD/CDK4 (R24C) immortal melanocytes expressing STK19 D89N mutant at 3 uM relative to control", "assay_type": "functional, tissue-based", "settings": "Homo sapiens"}, "[14]": {"test": "Toxicity in nude mouse xenografted with human SK-MEL-2 cells assessed as increase in animal survival at 25 mg/kg", "assay_type": "organism-based", "settings": "in vivo"}, "[15]": {"test": "Toxicity in C57BL/6J mouse assessed as liver histology at 25 mg/kg, administered twice daily for 20 days by H and E staining method", "assay_type": "organism-based", "settings": "in vivo, 480 h"}, "[16]": {"system": "SK-MEL-2", "test": "Antitumor activity against human SK-MEL-2 cells xenografted in nude mouse assessed as inhibition of cancer cell proliferation at 25 mg/kg, administered for 21 days", "assay_type": "functional, organism-based"}, "[17]": {"test": "Toxicity in C57BL/6J mouse assessed as kidney histology at 25 mg/kg, administered twice daily for 20 days by H and E staining method", "assay_type": "organism-based", "settings": "in vivo, 480 h"}, "[18]": {"system": "hTERT", "test": "Inhibition of colony formation in hTERT/p53DD/CDK4 (R24C) immortal melanocytes expressing STK19 D89N mutant at 3 uM relative to control", "assay_type": "functional", "settings": "Homo sapiens"}, "[19]": {"test": "Toxicity in C57BL/6J mouse assessed as effect on aspartate aminotransferase level at 25 mg/kg, administered twice daily for 20 days", "assay_type": "organism-based", "settings": "in vivo, 480 h"}, "[20]": {"target": "T1, Inactive serine/threonine-protein kinase 19 (Homo sapiens)", "test": "Inhibition of STK19 in human SK-MEL-2 cells expressing NRAS Q61R and wild-type BRAF at 100 nM assessed as H3K9 methylation relative to control", "assay_type": "cell-based"}, "[21]": {"target": "T1, Inactive serine/threonine-protein kinase 19 (Homo sapiens)", "test": "Inhibition of STK19 in human SK-MEL-2 cells expressing NRAS Q61R and wild-type BRAF at 100 nM assessed as NRAS phosphorylation relative to control", "assay_type": "cell-based"}, "[22]": {"target": "T1, Inactive serine/threonine-protein kinase 19 (Homo sapiens)", "test": "Inhibition of STK19 in human SK-MEL-2 cells expressing NRAS Q61R and wild-type BRAF at 1-3 uM assessed as PI3K signaling relative to control", "assay_type": "cell-based"}, "[23]": {"test": "Toxicity in C57BL/6J mouse assessed as effect on alkaline phosphatase level at 25 mg/kg, administered twice daily for 20 days", "assay_type": "organism-based", "settings": "in vivo, 480 h"}, "[24]": {"system": "SK-MEL-2", "test": "Antitumor activity against human SK-MEL-2 cells xenografted in nude mouse assessed as induction of apoptosis at 25 mg/kg, administered for 21 days", "assay_type": "functional, organism-based"}, "[25]": {"test": "Toxicity in C57BL/6J mouse assessed as brain histology at 25 mg/kg, administered twice daily for 20 days by H and E staining method", "assay_type": "organism-based", "settings": "in vivo, 480 h"}, "[26]": {"system": "UACC-62", "test": "Induction of apoptosis in human UACC62 cells expressing wild-type NRAS and BRAF V600E mutant at 1-3 uM relative to control", "assay_type": "functional, cell-based"}}, "note": "The source made the active and inactive calls. The rule behind the calls is not given here.", "data": [{"compound": "COc1cc2nc(NC3CC3)nc(NC3CCN(C(C)C)CC3)c2cc1OC.O=C(O)C(F)(F)F", "values": [{"measurement": "Activity", "setting": "[1]", "value": "Non-Toxic"}, {"measurement": "Activity", "setting": "[2]", "value": "inactive"}, {"measurement": "Activity", "setting": "[3]", "value": "Active"}, {"measurement": "Activity", "setting": "[4]", "value": "Active"}, {"measurement": "Activity", "setting": "[5]", "value": "Non-Toxic"}, {"measurement": "inhibition", "setting": "[6]", "value": "inactive"}, {"measurement": "Activity", "setting": "[7]", "value": "Active"}, {"measurement": "inhibition", "setting": "[8]", "value": "inactive"}, {"measurement": "Activity", "setting": "[9]", "value": "Active"}, {"measurement": "inhibition", "setting": "[10]", "value": "Active"}, {"measurement": "inhibition", "setting": "[11]", "value": "inactive"}, {"measurement": "inhibition", "setting": "[12]", "value": "Active"}, {"measurement": "Activity", "setting": "[13]", "value": "Active"}, {"measurement": "Activity", "setting": "[14]", "value": "Non-Toxic"}, {"measurement": "Activity", "setting": "[15]", "value": "Non-Toxic"}, {"measurement": "Activity", "setting": "[16]", "value": "Active"}, {"measurement": "Activity", "setting": "[17]", "value": "Non-Toxic"}, {"measurement": "Activity", "setting": "[18]", "value": "Active"}, {"measurement": "Activity", "setting": "[19]", "value": "Non-Toxic"}, {"measurement": "inhibition", "setting": "[20]", "value": "inactive"}, {"measurement": "inhibition", "setting": "[21]", "value": "Active"}, {"measurement": "inhibition", "setting": "[22]", "value": "Active"}, {"measurement": "Activity", "setting": "[23]", "value": "Non-Toxic"}, {"measurement": "Activity", "setting": "[24]", "value": "Active"}, {"measurement": "Activity", "setting": "[25]", "value": "Non-Toxic"}, {"measurement": "Activity", "setting": "[26]", "value": "inactive"}]}]}
